In US9408393B2, “Bismuth-thiols as antiseptics for agricultural, industrial and other uses” (Microbion Corporation, priority 2010, dated 2016):
Like-named read-outs stand apart in the source and are kept apart here.

Key:
[1] = tested on: S. epidermidis; experiment: Broth dilution MIC/MBC, BT-antibiotic combinations; type: cell-based, Staphylococcus epidermidis; details: for Δ, MIC / Δ (0.05 BE), MIC: 0.05 μg/ml BisEDT; for Δ (0.1 BE), MBC: 0.1 μg/ml BisEDT
Procedure: Materials & Methods. Susceptibility studies were performed by broth dilution in 96-well tissue culture plates (Nalge Nunc International, Denmark) in accordance with NCCLS protocols (National Committee for Clinical Laboratory Standards. (1997). Methods for Dilution Antimicrobial Susceptibility Tests for Bacteria that Grow Aerobically: Approved Standard M7-A2 and Informational Supplement M100-S10. NCCLS, Wayne, Pa., USA).
Briefly, overnight bacterial cultures were used to prepare 0.5 McFarland standard suspensions, which were further diluted 1:50 (˜2×10^6 cfu/mL) in cation-adjusted Mueller-Hinton broth medium (BBL, Cockeysville, Md., USA). BTs (prepared as described above) and antibiotics were added at incremental concentrations, keeping the final volume constant at 0.2 mL. Cultures were incubated for 24 h at 37° C. and turbidity was assessed by absorption at 630 nm using an ELISA plate reader (Biotek Instruments, Winooski, Vt., USA) according to the manufacturer's recommendations. […] Viable bacterial counts (cfu/mL) were determined by standard plating on nutrient agar.
The checkerboard method was used to assess the activity of antimicrobial combinations. The fractional inhibitory concentration index (FICI) and the fractional bactericidal concentration index (FBCI) were calculated, according to Eliopoulos et al. (Eliopoulos and Moellering, (1996) Antimicrobial combinations. In Antibiotics in Laboratory Medicine (Lorian, V., Ed.), pp. 330-96, Williams and Wilkins, Baltimore, Md., USA). Synergy was defined as an FICI or FBCI index of […], no interaction at >0.5-4 and antagonism at >4 (Odds, F C (2003) Synergy, antagonism, and what the chequerboard puts between them. Journal of Antimicrobial Chemotherapy 52:1). Synergy was also defined conventionally as ≧4-fold decrease in antibiotic concentration.

[2] = tested on: S. epidermidis S2400-1 biofilm; experiment: Biofilm prevention, BisEDT-antibiotic combinations; type: cell-based, Staphylococcus epidermidis; details: for Δ (0.05 BE), biofilm prevention: 0.05 μg/ml BisEDT
Procedure: (§1) S. epidermidis grown in TSB+2% glucose in polystyrene plates for 48 h at 37° C. Gatifloxacin (GF), clindamycin (CM), minocycline (MC), gentamicin (GM), vancomycin (VM), cefazolin (CZ), nafcillin (NC), and rifampicin (RP). […]

[3] = tested on: S. epidermidis biofilm; experiment: Biofilm prevention concentration (BPC), BisEDT and antibiotics; type: cell-based, Staphylococcus epidermidis; details: for Fold reduction of BPC in presence of subMIC BisEDT: TSB + 2% glucose, 48 h
Procedure: as §1

[4] = tested on: MRSA clinical isolates; details: cited from earlier work; for MIC Standards, R (resistance): Standard MIC breakpoint for resistance; for MIC Standards, S (antibiotic sensitivity): Standard MIC breakpoint for sensitivity
[5] = tested on: MRSA clinical isolates; experiment: Broth dilution MIC in BHIG/X medium with subMIC BisEDT; type: cell-based, Staphylococcus aureus; details: Staphylococcus aureus, MRSA, 12 MRSA clinical isolates, BHIG/X, mean ± SD
Procedure: (§2) Broth dilution antimicrobial susceptibility studies were performed against 12 MRSA strains using several antibiotics combined with subMIC levels of BisEDT (Table 18). Both the biofilm-prevention concentration (BPC) and the minimum inhibitory concentration (MIC) were determined in a special biofilm culture medium (BHIG/X). […] These strains were already sensitive to vancomycin, but were made considerably moreso in the presence of subMIC BisEDT.
In this particular study, the data indicated synergy between BisEDT and cefepime (FIC<0.5), with many of the isolates at the breakpoint for sensitivity.

[6] = tested on: MRSA clinical isolates biofilm; experiment: Biofilm-prevention concentration (BPC) in BHIG/X medium with subMIC BisEDT; type: cell-based, Staphylococcus aureus; details: 12 MRSA clinical isolates, mean ± SD
Procedure: as §2

[7] = tested on: Escherichia coli; experiment: Single-point BisEDT-antibiotic combination FICI; type: cell-based
[8] = tested on: Klebsiella pneumoniae; experiment: Single-point BisEDT-antibiotic combination FICI; type: cell-based; details: KP 1231
[9] = tested on: Enterococcus faecalis; experiment: Single-point BisEDT-antibiotic combination FICI; type: cell-based; details: E Fc 3121
[10] = tested on: Pseudomonas aeruginosa; experiment: Single-point BisEDT-antibiotic combination FICI; type: cell-based; details: PA 1380
[11] = tested on: Burkholderia cepacia; experiment: Single-point BisEDT-antibiotic combination FICI; type: cell-based; details: Bcep 1756
[12] = tested on: Acinetobacter baumanii; experiment: Single-point BisEDT-antibiotic combination FICI; type: cell-based; details: Abau 2594
[13] = tested on: Staphylococcus aureus (SA, MRSA); experiment: Single-point BisEDT-antibiotic combination FICI; type: cell-based
[14] = tested on: Bukholderia multivorans; experiment: Single-point BisEDT-antibiotic combination FICI; type: cell-based; details: Bmult 5665
[15] = tested on: Streptococcus pneumoniae (SP, PRSP); experiment: Single-point BisEDT-antibiotic combination FICI; details: PRSP 5348
[16] = tested on: lawn of MRSA (Methicillin-resistant S. aureus); experiment: Antibiotic-soaked discs on bacterial lawn with and without BisEDT; type: cell-based, Staphylococcus aureus; details: antibiotic discs combined with BisEDT 0.05 μg/ml
Procedure: FIGS. 4A and 4B show the subinhibitory BisEDT reversing antibiotic-resistance to several antibiotics. Effects of antibiotics with and without BisEDT (0.05 μg/ml) on a lawn of MRSA (Methicillin-resistant S. aureus) is shown. […] [GM=gentamicin, CZ=cefazolin, FEP=cefepime, IPM=imipenim, SAM=ampicillin/sulbactam, LVX=levofloxacin.

[17] = S. epidermidis ATCC 35984, BisEDT 0.0 μg/ml
[18] = S. epidermidis ATCC 35984, BisEDT 0.05 μg/ml
[19] = S. epidermidis S2400-1, BisEDT 0 μg/ml
[20] = S. epidermidis S2400-1, BisEDT 0.0 μg/ml
[21] = S. epidermidis S2400-1, BisEDT 0.05 μg/ml
[22] = S. epidermidis S2400-1, BisEDT 0.1 μg/ml

Compound	Δ, MIC ([1]; S. epidermidis ATCC 35984)	MIC [1, 17]	MIC [1, 18]	Δ (0.05 BE), MIC ([1]; S. epidermidis S2400-1)	Δ (0.1 BE), MBC ([1]; S. epidermidis S2400-1)	MIC [1, 19]	MBC [1, 20]	MIC [1, 21]	MBC [1, 22]	MIC [1, 22]	Δ (0.05 BE), biofilm prevention [2]	Biofilm Prevention (antibiotic concentration) ([2]; BisEDT 0 μg/ml)	Biofilm Prevention (antibiotic concentration) ([2]; BisEDT 0.05 μg/ml)	Biofilm Prevention (antibiotic concentration) ([2]; BisEDT 0.1 μg/ml)	Fold reduction of BPC in presence of subMIC BisEDT [3]	MIC Standards, R (resistance) [4]	MIC Standards, S (antibiotic sensitivity) [4]	BPC ([6]; BisEDT 0 μg/mL)	BPC ([6]; BisEDT 0.025 μg/mL)	BPC ([6]; BisEDT 0.05 μg/mL)	also measured
CCC[C@@H]1C[C@@H](C(=O)N[C@@H]([C@H]2O[C@H](SC)[C@H](O)[C@@H](O)[C@H]2O)[C@H](C)Cl)N(C)C1 [Clindamycin, clindamycin]	2	2048.00 µg/mL	1024.00 µg/mL	2.67	2.67	2048 µg/mL	2048 µg/mL	768 µg/mL	768 µg/mL	24 µg/mL	24.9	1195 µg/mL	48 µg/mL	12 µg/mL	50 fold						
COc1c(N2CCNC(C)C2)c(F)cc2c(=O)c(C(=O)O)cn(C3CC3)c12 (centres unmarked) [Gatifloxacin, gatifloxacin]				2.13	2.00	1.7 µg/mL	2.8 µg/mL	0.8 µg/mL	1.4 µg/mL	0.3 µg/mL	16.0	1.6 µg/mL	0.1 µg/mL	0.1 µg/mL	10 fold	≧8 μg/ml	≦2 μg/ml	3.6 ± 2.6 µg/mL	2.6 ± 0.9 µg/mL	2.4 ± 1.1 µg/mL	MIC ([5]; BisEDT 0 μg/mL, read-out: MIC): 3.6 ± 2.6 µg/mL; MIC ([5]; BisEDT 0.025 μg/mL, read-out: MIC): 4 ± 2.8 µg/mL; MIC ([5]; BisEDT 0.05 μg/mL, read-out: MIC): 4 ± 2.8 µg/mL; MIC ([5]; BisEDT 0.1 μg/mL, read-out: MIC): 2.4 ± 1.1 µg/mL; BPC ([6]; BisEDT 0.1 μg/mL): 0.9 ± 0.8 µg/mL
CN(C)c1ccc(O)c2c1C[C@H]1C[C@H]3[C@H](N(C)C)C(O)=C(C(N)=O)C(=O)[C@@]3(O)C(O)=C1C2=O [Minocycline, minocycline]	3.3	0.13 µg/mL	0.04 µg/mL	2.63	1.00	1.13 µg/mL	1.20 µg/mL	0.43 µg/mL	1.20 µg/mL	0.10 µg/mL	1.2	0.85 µg/mL	0.73 µg/mL	0.08 µg/mL							FICI, single-point BisEDT-antibiotic combination ([7]; EC 102): 1.37; FICI, single-point BisEDT-antibiotic combination ([7]; EC 2232): 1.04; FICI, single-point BisEDT-antibiotic combination [8]: 1.29; FICI, single-point BisEDT-antibiotic combination [9]: 1.11; FICI, single-point BisEDT-antibiotic combination [10]: 0.99; FICI, single-point BisEDT-antibiotic combination [11]: 2.23; FICI, single-point BisEDT-antibiotic combination [12]: 1.29; FICI, single-point BisEDT-antibiotic combination ([13]; MRSA 773): 1.23; FICI, single-point BisEDT-antibiotic combination ([13]; SA 100): 1.09; FICI, single-point BisEDT-antibiotic combination [14]: 1.12; FICI, single-point BisEDT-antibiotic combination [15]: 0.46
CN[C@H](CC(C)C)C(=O)N[C@H]1C(=O)N[C@@H](CC(N)=O)C(=O)N[C@H]2C(=O)N[C@H]3C(=O)N[C@H](C(=O)N[C@H](C(=O)O)c4cc(O)cc(O)c4-c4cc3ccc4O)[C@H](O)c3ccc(c(Cl)c3)Oc3cc2cc(c3O[C@@H]2O[C@H](CO)[C@@H](O)[C@H](O)[C@H]2O[C@H]2C[C@](C)(N)[C@H](O)[C@H](C)O2)Oc2ccc(cc2Cl)[C@H]1O [Vancomycin, vancomycin]				1.40	3.86	3.2 µg/mL	5.4 µg/mL	2.3 µg/mL	1.4 µg/mL	0.3 µg/mL	3.6	3.2 µg/mL	0.9 µg/mL	0.1 µg/mL		≧32 μg/ml	≦4 μg/ml	2.5 ± 1.7 µg/mL	1.5 ± 0.6 µg/mL	1.3 ± 0.5 µg/mL	Synergy, MBC ([1]; S. epidermidis S2400-1): borderline; MIC ([5]; BisEDT 0 μg/mL): 2.5 ± 1.7 µg/mL; MIC ([5]; BisEDT 0.025 μg/mL): 2.5 ± 1.7 µg/mL; MIC ([5]; BisEDT 0.05 μg/mL): 1.5 ± 0.6 µg/mL; MIC ([5]; BisEDT 0.1 μg/mL): 1.3 ± 0.5 µg/mL; BPC ([6]; BisEDT 0.1 μg/mL): 0.7 ± 0.4 µg/mL; Change of biofilm prevention concentration (BPC) ([3]; 0.05 μg/ml BisEDT): modest decreases
Cc1cc(NS(=O)(=O)c2ccc(N)cc2)no1 [sulphamethoxazole]																					Antibiotic action on MRSA lawn with subMIC BisEDT [16]: enhanced antibiotic action
